Assay results reported in the kinase profiling compilation of Christmann-Franck et al. (2016).

Assays:
Assay in all cases: KINOMEscan competition binding
Conditions in all cases: compound 10.0 µM
IKBKB (human) = IKBKB (human) (UniProt O14920)
PRKCE (human) = PRKCE (human) (UniProt Q02156)
SYK (human) = SYK (human) (UniProt P43405)
TGFBR1 (human) = TGFBR1 (human) (UniProt P36897)
AKT1 (human) = AKT1 (human) (UniProt P31749)
PDGFRA (human) = PDGFRA (human) (UniProt P16234)
MAPK8 (human) = MAPK8 (human) (UniProt P45983)
ERBB4 (human) = ERBB4 (human) (UniProt Q15303)
MAPK3 (human) = MAPK3 (human) (UniProt P27361)
NLK (human) = NLK (human) (UniProt Q9UBE8)
CSNK1G2 (human) = CSNK1G2 (human) (UniProt P78368)
BRSK1 (human) = BRSK1 (human) (UniProt Q8TDC3)
AURKA (human) = AURKA (human) (UniProt O14965)
PRKACA (human) = PRKACA (human) (UniProt P17612)
CDK11B (human) = CDK11B (human) (UniProt P21127)
MET (human) = MET (human) (UniProt P08581)
TSSK1B (human) = TSSK1B (human) (UniProt Q9BXA7)
RET (human) = RET (human) (UniProt P07949)
STK32C (human) = STK32C (human) (UniProt Q86UX6)
NUAK2 (human) = NUAK2 (human) (UniProt Q9H093)
ANKK1 (human) = ANKK1 (human) (UniProt Q8NFD2)
MAP3K4 (human) = MAP3K4 (human) (UniProt Q9Y6R4)
[1] = target: JAK2 JH1 catalytic (human) (UniProt O60674)
[2] = system: BRAF (human), P15056 [V600E]
PDGFRB (human) = PDGFRB (human) (UniProt P09619)
MKNK1 (human) = MKNK1 (human) (UniProt Q9BUB5)
MAP3K14 (human) = MAP3K14 (human) (UniProt Q99558)
CSF1R (human) = CSF1R (human) (UniProt P07333)
STK39 (human) = STK39 (human) (UniProt Q9UEW8)
NEK1 (human) = NEK1 (human) (UniProt Q96PY6)
RPS6KB1 (human) = RPS6KB1 (human) (UniProt P23443)
[3] = target: TYK2 JH1 catalytic (human) (UniProt P29597)
RIOK2 (human) = RIOK2 (human) (UniProt Q9BVS4)
PLK4 (human) = PLK4 (human) (UniProt O00444)
MAP3K13 (human) = MAP3K13 (human) (UniProt O43283)
ERBB2 (human) = ERBB2 (human) (UniProt P04626)
CSNK1D (human) = CSNK1D (human) (UniProt P48730)
PKN1 (human) = PKN1 (human) (UniProt Q16512)
MAP2K1 (human) = MAP2K1 (human) (UniProt Q02750)
ERN1 (human) = ERN1 (human) (UniProt O75460)
MAP3K12 (human) = MAP3K12 (human) (UniProt Q12852)

Sequence of ERBB4 (human) (Q15303 whole entry, looked up): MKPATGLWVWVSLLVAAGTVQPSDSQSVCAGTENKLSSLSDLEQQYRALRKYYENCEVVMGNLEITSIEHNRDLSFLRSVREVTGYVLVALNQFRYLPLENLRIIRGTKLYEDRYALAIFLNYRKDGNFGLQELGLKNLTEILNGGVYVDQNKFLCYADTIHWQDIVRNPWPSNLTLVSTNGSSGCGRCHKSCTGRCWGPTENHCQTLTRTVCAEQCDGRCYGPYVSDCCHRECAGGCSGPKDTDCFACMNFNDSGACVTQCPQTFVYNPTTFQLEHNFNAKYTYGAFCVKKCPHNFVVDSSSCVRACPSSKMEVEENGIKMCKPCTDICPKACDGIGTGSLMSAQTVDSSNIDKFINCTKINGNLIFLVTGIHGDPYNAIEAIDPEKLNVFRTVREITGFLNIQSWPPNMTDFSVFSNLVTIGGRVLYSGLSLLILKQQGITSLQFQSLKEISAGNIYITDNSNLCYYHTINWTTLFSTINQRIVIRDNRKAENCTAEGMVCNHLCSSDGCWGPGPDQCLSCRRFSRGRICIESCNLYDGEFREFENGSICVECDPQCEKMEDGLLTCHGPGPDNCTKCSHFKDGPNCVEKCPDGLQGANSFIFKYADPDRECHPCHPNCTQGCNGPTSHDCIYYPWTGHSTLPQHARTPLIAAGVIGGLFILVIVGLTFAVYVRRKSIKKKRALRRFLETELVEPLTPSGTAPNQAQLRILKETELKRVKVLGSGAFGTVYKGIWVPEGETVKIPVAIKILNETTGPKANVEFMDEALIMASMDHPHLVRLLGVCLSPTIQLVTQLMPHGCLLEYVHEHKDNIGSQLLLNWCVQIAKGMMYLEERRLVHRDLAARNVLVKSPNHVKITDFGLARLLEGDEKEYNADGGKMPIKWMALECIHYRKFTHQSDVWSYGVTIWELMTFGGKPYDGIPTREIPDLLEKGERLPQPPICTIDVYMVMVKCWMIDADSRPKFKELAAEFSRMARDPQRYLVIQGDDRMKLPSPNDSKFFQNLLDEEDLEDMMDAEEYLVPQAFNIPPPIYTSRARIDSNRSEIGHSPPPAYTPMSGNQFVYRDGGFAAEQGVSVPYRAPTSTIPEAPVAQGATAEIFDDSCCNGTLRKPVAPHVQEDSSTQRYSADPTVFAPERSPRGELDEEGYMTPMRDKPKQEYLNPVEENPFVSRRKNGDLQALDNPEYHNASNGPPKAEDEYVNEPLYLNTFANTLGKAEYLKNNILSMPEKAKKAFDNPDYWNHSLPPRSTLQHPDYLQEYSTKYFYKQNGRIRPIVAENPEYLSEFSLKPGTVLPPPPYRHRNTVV
Sequence of RIOK2 (human) (Q9BVS4 whole entry, looked up): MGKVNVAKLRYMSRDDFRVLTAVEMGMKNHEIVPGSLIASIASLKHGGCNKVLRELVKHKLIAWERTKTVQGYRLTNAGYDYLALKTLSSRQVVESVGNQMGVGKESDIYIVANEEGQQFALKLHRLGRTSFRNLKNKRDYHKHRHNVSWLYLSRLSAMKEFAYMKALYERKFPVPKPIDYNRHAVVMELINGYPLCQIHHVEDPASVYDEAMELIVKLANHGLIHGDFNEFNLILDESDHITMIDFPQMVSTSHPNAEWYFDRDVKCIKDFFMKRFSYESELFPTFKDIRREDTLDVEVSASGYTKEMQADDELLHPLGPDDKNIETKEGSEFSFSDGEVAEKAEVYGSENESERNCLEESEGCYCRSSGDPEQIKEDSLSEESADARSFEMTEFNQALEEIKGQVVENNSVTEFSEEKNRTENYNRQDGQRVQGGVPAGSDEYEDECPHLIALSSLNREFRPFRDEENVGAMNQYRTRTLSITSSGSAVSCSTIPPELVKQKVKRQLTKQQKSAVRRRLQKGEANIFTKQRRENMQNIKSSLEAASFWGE
Sequence of MAP2K1 (human) (Q02750 whole entry, looked up): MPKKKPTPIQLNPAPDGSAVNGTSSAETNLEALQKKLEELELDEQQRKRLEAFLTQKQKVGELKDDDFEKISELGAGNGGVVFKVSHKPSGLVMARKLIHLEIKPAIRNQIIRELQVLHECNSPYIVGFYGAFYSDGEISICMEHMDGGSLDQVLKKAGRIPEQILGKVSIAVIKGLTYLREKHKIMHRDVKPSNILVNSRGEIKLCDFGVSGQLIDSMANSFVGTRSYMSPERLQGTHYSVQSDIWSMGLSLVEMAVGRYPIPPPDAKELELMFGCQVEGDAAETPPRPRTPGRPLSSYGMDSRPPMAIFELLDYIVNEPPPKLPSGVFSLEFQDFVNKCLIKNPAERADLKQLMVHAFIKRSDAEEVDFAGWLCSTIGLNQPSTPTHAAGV
Sequence of CDK11B (human) (P21127 whole entry, looked up): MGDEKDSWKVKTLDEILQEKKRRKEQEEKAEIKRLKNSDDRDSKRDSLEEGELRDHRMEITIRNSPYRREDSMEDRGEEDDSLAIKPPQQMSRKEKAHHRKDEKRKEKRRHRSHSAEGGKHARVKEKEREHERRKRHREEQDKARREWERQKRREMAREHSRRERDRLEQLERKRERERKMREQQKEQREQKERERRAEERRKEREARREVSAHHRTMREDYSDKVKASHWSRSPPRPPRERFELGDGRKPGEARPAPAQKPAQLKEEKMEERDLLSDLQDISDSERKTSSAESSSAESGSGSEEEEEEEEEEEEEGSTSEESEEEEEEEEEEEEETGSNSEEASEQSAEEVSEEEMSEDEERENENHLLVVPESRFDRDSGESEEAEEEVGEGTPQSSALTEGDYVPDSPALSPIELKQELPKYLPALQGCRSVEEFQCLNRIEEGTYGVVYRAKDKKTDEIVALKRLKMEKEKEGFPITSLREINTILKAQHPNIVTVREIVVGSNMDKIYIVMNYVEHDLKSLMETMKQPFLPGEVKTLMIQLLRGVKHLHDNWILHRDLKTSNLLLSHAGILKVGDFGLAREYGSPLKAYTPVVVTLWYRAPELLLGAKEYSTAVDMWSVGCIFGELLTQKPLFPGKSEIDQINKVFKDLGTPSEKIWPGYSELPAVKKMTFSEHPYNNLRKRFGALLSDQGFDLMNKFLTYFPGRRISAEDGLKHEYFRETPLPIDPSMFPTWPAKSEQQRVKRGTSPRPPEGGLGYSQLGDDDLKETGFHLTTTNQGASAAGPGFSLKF
Sequence of CSNK1D (human) (P48730 whole entry, looked up): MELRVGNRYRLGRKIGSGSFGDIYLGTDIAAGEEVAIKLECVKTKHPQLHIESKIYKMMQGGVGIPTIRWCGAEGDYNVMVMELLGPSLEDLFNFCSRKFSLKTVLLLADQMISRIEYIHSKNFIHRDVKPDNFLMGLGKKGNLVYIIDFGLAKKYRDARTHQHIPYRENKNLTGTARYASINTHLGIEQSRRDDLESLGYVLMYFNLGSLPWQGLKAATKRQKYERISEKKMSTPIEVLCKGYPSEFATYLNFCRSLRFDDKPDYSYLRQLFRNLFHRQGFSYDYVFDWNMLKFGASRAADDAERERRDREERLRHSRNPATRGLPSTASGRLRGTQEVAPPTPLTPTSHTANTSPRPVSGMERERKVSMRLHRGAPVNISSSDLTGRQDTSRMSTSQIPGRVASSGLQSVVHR
Sequence of PDGFRA (human) (P16234 whole entry, looked up): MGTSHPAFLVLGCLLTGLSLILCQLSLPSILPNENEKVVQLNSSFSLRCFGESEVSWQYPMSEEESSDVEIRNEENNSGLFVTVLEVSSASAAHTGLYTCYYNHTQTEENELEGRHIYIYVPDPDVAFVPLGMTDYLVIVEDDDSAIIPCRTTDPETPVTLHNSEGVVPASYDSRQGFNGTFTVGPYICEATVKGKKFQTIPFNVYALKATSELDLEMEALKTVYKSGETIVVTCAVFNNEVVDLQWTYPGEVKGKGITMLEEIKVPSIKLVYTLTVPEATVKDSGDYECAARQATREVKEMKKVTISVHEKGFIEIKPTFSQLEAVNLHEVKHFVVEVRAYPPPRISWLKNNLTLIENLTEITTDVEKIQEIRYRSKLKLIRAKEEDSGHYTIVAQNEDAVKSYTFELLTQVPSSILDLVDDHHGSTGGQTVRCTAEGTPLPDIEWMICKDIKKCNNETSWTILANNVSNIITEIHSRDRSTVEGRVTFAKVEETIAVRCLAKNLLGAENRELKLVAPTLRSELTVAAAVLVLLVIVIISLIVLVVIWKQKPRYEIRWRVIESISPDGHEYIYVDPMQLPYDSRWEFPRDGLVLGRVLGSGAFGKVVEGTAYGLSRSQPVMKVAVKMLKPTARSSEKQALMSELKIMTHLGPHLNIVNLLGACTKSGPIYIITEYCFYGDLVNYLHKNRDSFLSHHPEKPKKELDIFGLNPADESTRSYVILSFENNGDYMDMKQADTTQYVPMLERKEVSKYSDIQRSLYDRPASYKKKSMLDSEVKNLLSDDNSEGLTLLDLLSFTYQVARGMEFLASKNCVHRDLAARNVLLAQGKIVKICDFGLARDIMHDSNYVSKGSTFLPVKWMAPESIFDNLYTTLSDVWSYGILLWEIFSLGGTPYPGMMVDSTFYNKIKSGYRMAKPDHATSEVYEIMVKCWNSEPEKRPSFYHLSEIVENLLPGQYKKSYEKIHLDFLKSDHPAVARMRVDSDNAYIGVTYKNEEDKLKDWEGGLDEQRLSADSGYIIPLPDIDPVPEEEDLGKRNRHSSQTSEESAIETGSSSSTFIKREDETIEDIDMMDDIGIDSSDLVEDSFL
Sequence of AKT1 (human) (P31749 whole entry, looked up): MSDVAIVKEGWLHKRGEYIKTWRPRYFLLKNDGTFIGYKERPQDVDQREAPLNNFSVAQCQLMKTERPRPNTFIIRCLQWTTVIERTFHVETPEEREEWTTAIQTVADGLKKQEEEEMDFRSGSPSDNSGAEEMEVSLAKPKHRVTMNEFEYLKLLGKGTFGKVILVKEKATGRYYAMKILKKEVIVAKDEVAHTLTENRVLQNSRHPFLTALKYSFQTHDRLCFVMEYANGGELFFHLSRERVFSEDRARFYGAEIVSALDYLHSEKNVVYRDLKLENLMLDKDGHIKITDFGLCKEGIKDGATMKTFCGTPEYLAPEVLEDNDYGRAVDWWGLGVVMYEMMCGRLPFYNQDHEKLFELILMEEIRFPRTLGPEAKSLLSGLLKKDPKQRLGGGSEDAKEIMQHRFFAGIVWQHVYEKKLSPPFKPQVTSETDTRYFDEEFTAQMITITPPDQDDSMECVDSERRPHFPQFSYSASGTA

kinase still bound, per cent of control (IKBKB (human)): 91% | kinase still bound, per cent of control (PRKCE (human)): 86% | kinase still bound, per cent of control (SYK (human)): 56% | kinase still bound, per cent of control (TGFBR1 (human)): 93% | kinase still bound, per cent of control (AKT1 (human)): 100% | kinase still bound, per cent of control (PDGFRA (human)): 0.4% | kinase still bound, per cent of control (MAPK8 (human)): 85% | kinase still bound, per cent of control (ERBB4 (human)): 94% | kinase still bound, per cent of control (MAPK3 (human)): 100% | kinase still bound, per cent of control (NLK (human)): 44% | kinase still bound, per cent of control (CSNK1G2 (human)): 94% | kinase still bound, per cent of control (BRSK1 (human)): 86% | kinase still bound, per cent of control (AURKA (human)): 23% | kinase still bound, per cent of control (PRKACA (human)): 69% | kinase still bound, per cent of control (CDK11B (human)): 69% | kinase still bound, per cent of control (MET (human)): 58% | kinase still bound, per cent of control (TSSK1B (human)): 86% | kinase still bound, per cent of control (RET (human)): 0% | kinase still bound, per cent of control (STK32C (human)): 96% | kinase still bound, per cent of control (NUAK2 (human)): 73% | kinase still bound, per cent of control (ANKK1 (human)): 89% | kinase still bound, per cent of control (MAP3K4 (human)): 87% | kinase still bound, per cent of control [1]: 80% | kinase still bound, per cent of control [2]: 0.55% | kinase still bound, per cent of control (PDGFRB (human)): 0% | kinase still bound, per cent of control (MKNK1 (human)): 5.4% | kinase still bound, per cent of control (MAP3K14 (human)): 97% | kinase still bound, per cent of control (CSF1R (human)): 0.3% | kinase still bound, per cent of control (STK39 (human)): 72% | kinase still bound, per cent of control (NEK1 (human)): 85% | kinase still bound, per cent of control (RPS6KB1 (human)): 69% | kinase still bound, per cent of control [3]: 88% | kinase still bound, per cent of control (RIOK2 (human)): 100% | kinase still bound, per cent of control (PLK4 (human)): 52% | kinase still bound, per cent of control (MAP3K13 (human)): 92% | kinase still bound, per cent of control (ERBB2 (human)): 100% | kinase still bound, per cent of control (CSNK1D (human)): 88% | kinase still bound, per cent of control (PKN1 (human)): 100% | kinase still bound, per cent of control (MAP2K1 (human)): 76% | kinase still bound, per cent of control (ERN1 (human)): 100% | kinase still bound, per cent of control (MAP3K12 (human)): 100%
SMILES: O=C(Nc1ccc(Oc2ncnc3[nH]ncc23)cc1)Nc1ccc(Cl)c(C(F)(F)F)c1
